From ChEMBL document CHEMBL1201862, “PubChem BioAssay data set” (2004) come the findings set out here.

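Grown in 96-well plates, cells were treated for 48 hours with each compound at five concentrations. Insufficient inhibition: endpoint recorded as highest concentration tested. At the GI50, growth is halved.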 Calls of active or inactive are those of the source. Rule as the data show it: active = GI50 up to about 1.1 µM and inactive = higher.

Among the test systems are IGROV-1; HCT-15; OVCAR-4; NCI-H226; SR; M14; OVCAR-5; SN12C; HT-29; EKVX; U-251; NCI/ADR-RES; SK-MEL-2; MDA-MB-435; T47D; HCC 2998; COLO 205; SF-539.
Common to all, as to assay: NCI anticancer screen, dose series, 48 h

Regarding `c1ccc2sc(SCSc3nc4ccccc4s3)nc2c1`, the GI50 is > 100 µM (inactive) with IGROV-1; 20.6 µM in the experiment on HCT-15; > 100 µM (inactive) in the experiment on OVCAR-4; > 100 µM (inactive) in the experiment with NCI-H226; 7.08 µM (inactive) in the experiment on SR; > 100 µM (inactive) in the experiment with M14. For the same compound, the GI50 in the experiment on OVCAR-5 was > 100 µM (inactive); with SN12C, > 100 µM (inactive); in the experiment with HT-29, 72.1 µM (inactive); in the experiment with EKVX, 50.1 µM (inactive); in the experiment on U-251, 39.3 µM (inactive); with NCI/ADR-RES it was 94 µM (inactive). The GI50 was > 100 µM (inactive) with SK-MEL-2, > 100 µM (inactive) with MDA-MB-435, > 100 µM (inactive) with T47D and 75.9 µM (inactive) in the experiment on HCC 2998.
In the case of `CCOC(=O)C1(C#N)C2(C#N)C(N)=NC(ON=C(C)C)(ON=C(C)C)C12C#N` (stereo unspecified), the GI50 with IGROV-1 is > 100 µM (inactive); with HCT-15, more than 100 µM; in the experiment with OVCAR-4, > 100 µM (inactive); in the experiment with NCI-H226, > 100 µM (inactive); in the experiment on SR it was > 100 µM (inactive); with M14, > 100 µM (inactive). The GI50 in the experiment with OVCAR-5, in the experiment on SN12C, in the experiment with HT-29, in the experiment with EKVX, in the experiment with U-251 and in the experiment on NCI/ADR-RES was > 100 µM (inactive) each time. The GI50 in the experiment with SK-MEL-2, in the experiment on COLO 205, with MDA-MB-435, with T47D and in the experiment on HCC 2998 was > 100 µM (inactive) throughout.
`COc1cc(OCc2ccc3nc(-c4ccccc4)c(N)nc3c2)cc(OC)c1OC`: the GI50 with IGROV-1 was 22.2 µM (inactive); in the experiment with HCT-15, 17.3 µM; with OVCAR-4, 13.8 µM (inactive); in the experiment on NCI-H226, 21.3 µM (inactive); in the experiment on SR, 17.9 µM (inactive); with M14, 15.8 µM (inactive). The GI50 was 17.6 µM (inactive) with OVCAR-5; 25.7 µM (inactive) in the experiment on SN12C; 20.7 µM (inactive) with SF-539; 19.7 µM (inactive) with EKVX; 32.5 µM (inactive) in the experiment on U-251; 20.7 µM (inactive) with NCI/ADR-RES. Also, the GI50 was 19.9 µM (inactive) with SK-MEL-2; 16.5 µM (inactive) in the experiment with COLO 205; 19.1 µM (inactive) in the experiment on MDA-MB-435; 14.4 µM (inactive) in the experiment on T47D; 35 µM (inactive) in the experiment with HCC 2998.
For `O=C1Nc2cccc3cc(NCC(O)CCl)cc1c23` (stereo unspecified), the GI50 was 59 µM (inactive) in the experiment on IGROV-1; 48.9 µM in the experiment with HCT-15; > 100 µM (inactive) in the experiment with OVCAR-4; > 100 µM (inactive) in the experiment on NCI-H226; 11.7 µM (inactive) in the experiment on SR; 56.1 µM (inactive) in the experiment with M14. The GI50 with OVCAR-5 is > 100 µM (inactive); in the experiment on SN12C it was 41.8 µM (inactive); in the experiment on HT-29, 58.7 µM (inactive); in the experiment on EKVX, 32.5 µM (inactive); in the experiment on U-251 it was 32.9 µM (inactive); in the experiment with NCI/ADR-RES it was 64.7 µM (inactive). For the same compound, the GI50 with SK-MEL-2 was 21.5 µM (inactive); in the experiment on COLO 205 it was 77.4 µM (inactive); in the experiment on MDA-MB-435 it was 54.2 µM (inactive); in the experiment with T47D, 88.5 µM (inactive); in the experiment on HCC 2998, 91 µM (inactive).
With `Cc1cc(C[C@H]2O[C@@H]3OC(C)(C)O[C@@H]3[C@H]3OC(C)(C)O[C@H]32)c2ccccc2n1`, the GI50 with IGROV-1 was 49.8 µM (inactive); in the experiment with HCT-15 it was 76.4 µM; in the experiment with OVCAR-4, > 100 µM (inactive); with NCI-H226 it was 55.3 µM (inactive); in the experiment on SR it was 34.8 µM (inactive); with OVCAR-5, > 100 µM (inactive). Further, the GI50 is > 100 µM (inactive) in the experiment with SN12C; > 100 µM (inactive) in the experiment on SF-539; > 100 µM (inactive) with HT-29; 79.6 µM (inactive) in the experiment with EKVX; > 100 µM (inactive) in the experiment on U-251; 34 µM (inactive) in the experiment with NCI/ADR-RES. For the same compound, the GI50 with SK-MEL-2 was 36 µM (inactive); in the experiment with COLO 205 it was > 100 µM (inactive); with MDA-MB-435, > 100 µM (inactive); with T47D, 63.5 µM (inactive); in the experiment with HCC 2998, > 100 µM (inactive).
Regarding `COc1cc(/C=C2\C[C@H]3[C@@H]4CCc5cc(OCCN6CCCC6)ccc5[C@H]4CC[C@]3(C)C2=O)cc(OC)c1OC`, the GI50 in the experiment on IGROV-1 was 1.57 µM (inactive); in the experiment on HCT-15 it was 1.68 µM; in the experiment with OVCAR-4, 1.6 µM (inactive); with NCI-H226, 1.97 µM (inactive); in the experiment on SR, 0.314 µM (active); in the experiment on M14, 1.67 µM (inactive). For the same compound, the GI50 in the experiment on OVCAR-5 was 1.67 µM (inactive); in the experiment on SN12C, 1.72 µM (inactive); with SF-539, 1.61 µM (inactive); with EKVX it was 2.39 µM (inactive); in the experiment with NCI/ADR-RES, 1.91 µM (inactive); in the experiment with SK-MEL-2, 2.26 µM (inactive). Besides, the GI50 is 1.48 µM (inactive) in the experiment with COLO 205, 1.61 µM (inactive) in the experiment with MDA-MB-435, 1.95 µM (inactive) in the experiment on T47D and 1.83 µM (inactive) in the experiment with HCC 2998.
Regarding `CCn1c(=O)c2nc(SC)sc2n(-c2ccccc2)c1=O`, the GI50 in the experiment on IGROV-1 was > 100 µM (inactive); with HCT-15, more than 100 µM; with OVCAR-4 it was > 100 µM (inactive); with NCI-H226, > 100 µM (inactive); in the experiment on SR, > 100 µM (inactive); in the experiment on M14, > 100 µM (inactive). Also, the GI50 in the experiment on OVCAR-5, in the experiment on SN12C, in the experiment with SF-539, in the experiment on HT-29, in the experiment on U-251 and in the experiment with NCI/ADR-RES was > 100 µM (inactive) in each case. The GI50 in the experiment with SK-MEL-2, in the experiment on COLO 205, with MDA-MB-435, in the experiment with T47D and with HCC 2998 was > 100 µM (inactive) in each case.
Regarding `O=C1NC2CCCCC2N=C1CC(=O)c1ccc(Br)cc1` (stereo unspecified), the GI50 in the experiment with IGROV-1 is 5.22 µM (inactive); in the experiment on HCT-15 it was 29.4 µM; in the experiment with NCI-H226, 4.22 µM (inactive); in the experiment with SR, > 100 µM (inactive); in the experiment on M14 it was > 100 µM (inactive); with OVCAR-5, > 100 µM (inactive). Moreover, the GI50 in the experiment with SN12C was 27.7 µM (inactive); with SF-539, 26.8 µM (inactive); in the experiment with HT-29 it was > 100 µM (inactive); in the experiment with EKVX it was 17.8 µM (inactive); in the experiment on U-251, 20.6 µM (inactive); in the experiment with NCI/ADR-RES, 4.07 µM (inactive). For the same compound, the GI50 is 70.6 µM (inactive) with SK-MEL-2; > 100 µM (inactive) with COLO 205; > 100 µM (inactive) in the experiment with MDA-MB-435; 3.94 µM (inactive) with T47D; 39 µM (inactive) in the experiment on HCC 2998.
As for `COc1cc(C=O)ccc1O` [VANILLIN], the GI50 was > 100 µM (inactive) in the experiment on IGROV-1; more than 100 µM with HCT-15; > 100 µM (inactive) in the experiment on OVCAR-4; > 100 µM (inactive) in the experiment with NCI-H226; > 100 µM (inactive) with SR; > 100 µM (inactive) in the experiment with M14. In addition, the GI50 with OVCAR-5, with SN12C, with SF-539, in the experiment with HT-29, with EKVX and in the experiment with U-251 was > 100 µM (inactive) throughout. Also, the GI50 in the experiment on NCI/ADR-RES, with COLO 205, in the experiment with MDA-MB-435, in the experiment on T47D and in the experiment on HCC 2998 was > 100 µM (inactive) throughout.
